The results in this text go back to US20090022803A1, “Oral Formulations For Delivery of Catecholic Butanes Including Ndga Compounds” (priority 2005, published 2009).

Data set [1] can be described thus: Human Phase 0 three-way crossover microdose pharmacokinetic study of 14C-labelled M4N, AMS. In kind it is in vivo. The note with it: for F: bioavailability of oral dose compared to IV dose; for Tmax: intravenous dose. The procedure:
This study was designed to assess the absorption of M4N when administered to humans as a sub-therapeutic dose either as a single oral dose under fed and fasted conditions or a single intravenous dose (Regimens A-C, respectively, in Table 24). The study was a three-way crossover study design in a target population of healthy male subjects and consisted of three study periods of approximately 35 hours duration, each separated by a minimum period of at least 7 days between dosing. During the course of each study period, pharmacokinetic blood samples were taken at specified time points after dosing and urine was collected over pre-defined time intervals. The subjects were able to leave the clinical unit after the completion of study specific procedures at 24 hours post-dose.
In this study, M4N was administered to humans in a 100 μg quantity. M4N was lightly-labelled with ^14C (3.3 kBq per 100 μg) and administered to healthy volunteers. Each oral administration of M4N consisted of 0.1 mg of ^14C labeled M4N and 376.8 mg of glycerol monooleate in a size 0 gelatin capsule. The single intravenous infusion of M4N consisted of 0.1 mg/mL ^14C labelled M4N, 30% (w/v) HP-β-CD, and 25% (v/v) PEG diluted with water to 1 mL for bolus injection. Following collection of blood and urine from each subject, samples were analyzed for ^14C content using Accelerator Mass Spectrometry (AMS) to determine the maximum concentration of M4N (Cmax) that occurred at time Tmax, the overall area under the curve (AUC) that corresponds to the overall absorption of M4N at the times of testing (AUC0-t) and overall (AUC0-∞), the terminal half-life (T1/2) of each sample and the relative and overall bioavailability (Frel and F), of the oral dose of M4N compared to the IV dose of M4N. The baseline levels of M4N were corrected for any residual M4N remaining in the subjects following the periods between dosing so as not to inflate the levels of M4N for any subsequent dosing.

Data set [2] in a line: Oral (gavage) repeated dose pharmacokinetic study of M4N in ten excipient formulations. The note with it: rat, in vivo, 500 mg/kg. The procedure: The purpose of this study was to provide information on pharmacokinetics of a 500 mg/kg dose of M4N in ten different excipient formulations. […] Crl:(CD)SD male and female rats were assigned to ten dosage groups, five rats per sex per group. Samples were prepared having carriers as follows that were administered to the following groups of subjects:
Each formulation of M4N was administered orally via gavage on three occasions. The concentration of the M4N was 60 mg/mL administered at a dosage volume 8.33 mL/kg, based on the most recent body weight. The rats were given the first dose (day 1 of study) after being fasted overnight followed by a 72 hour washout (recovery) period. On day 5 of study (DS 5), the second dose of test article was administered to non-fasted rats followed by a one week washout (recovery) period. On DS 6, the rats were placed on a high fat diet (approximately 10% fat content versus approximately 5% in a standard diet). […] These observations were also recorded once daily on non dosing days and during the post dosage period. Body weights were recorded at least weekly during the acclimation period, daily during the dosage and at sacrifice terminal weight. Feed consumption values were recorded weekly during the dosage period and at sacrifice (feed left value). […] The time of each blood collection was recorded in the raw data. […]

Setting [3] is: human, 100 μg, total 14C plasma.
The mark [4] stands for this setting: human, oral and intravenous 100 μg.

The compound `COc1ccc(C[C@@H](C)[C@@H](C)Cc2ccc(OC)c(OC)c2)cc1OC` [Formulation M4N, meso-1,4-bis(3,4-dimethoxyphenyl)-2,3-dimethylbutane] gave a F in data set [1] (Regimen A (oral, fed): 100 μg single oral dose following a high fat breakfast, 14C, baseline corrected, mean ± SD) of 91.2 ± 19.1%. Moreover, the F in data set [1] (Regimen B (oral, fasted): 100 μg single oral dose following an overnight fast, 14C, baseline corrected, mean ± SD) stood at 122.1 ± 14.5%. For the same compound, in data set [1] (setting [3]), the “AUC0-t oral dose in fasted subjects compared with the intravenous dose” value is reported as “slightly higher” and the “AUC0-t oral dose in fed subjects compared with the intravenous dose” value is recorded as “slightly lower”. In addition, the “apparent absorption following oral administration” value in data set [1] (human, fed and fasted state) is “very high”. For the same compound, the time of peak concentration (Tmax) in data set [1] (human, eight of the ten subjects (first sampling time)) is 4.8 min. In data set [1] (human, two subjects), the Tmax came out at 10.2 min. Moreover, the “AUC0-t in fed subjects compared with fasted subjects” value in data set [1] (human, oral 100 μg) is listed as “generally lower”. Further, the “Tmax, generally” value in data set [1] (human, oral 100 μg, fasted subjects) was 60 min. Also, in data set [1] (setting [4]), the adverse events entry was “no serious or severe adverse events”, the tolerability result is “well tolerated” and the “vital signs or ECGs” value is on record as “No clinically significant changes”. Moreover, the Frel in data set [1] (relative bioavailability, Regimen A (oral, fed): 100 μg single oral dose following a high fat breakfast, 14C, baseline corrected, mean ± SD) came to 75.1 ± 16.2%. The “Blood levels on high fat diet versus standard diet or fasting” value in data set [2] is given as “always higher”.

By Tmax is commonly meant the time from dosing to the highest level.
